Data published in publication PMC10504751, “Chalcone/1,3,4-Oxadiazole/Benzimidazole hybrids as novel anti-proliferative agents inducing apoptosis and inhibiting EGFR & BRAFV^600E” (BMC Chemistry, 2023).
Where two headings read alike, the source gives them in different places.

Legend:
[1] = test system: CCRF-CEM; test: NCI one-dose SRB anti-proliferative screen; assay type: cell-based; conditions: Homo sapiens, read-out: Cell growth inhibition %
In short: (§1)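 Activity reflects a single-point exposure at 10 µM, with cell mass determined by a sulforhodamine B dye assay.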

[2] = test system: COLO 205; test: NCI one-dose SRB anti-proliferative screen; assay type: cell-based; conditions: Homo sapiens, read-out: Cell growth inhibition %
In short: as §1

[3] = test system: DU-145; test: NCI one-dose SRB anti-proliferative screen; assay type: cell-based; conditions: Homo sapiens, read-out: Cell growth inhibition %
In short: as §1

[4] = test system: EKVX; test: NCI one-dose SRB anti-proliferative screen; assay type: cell-based; conditions: Homo sapiens, read-out: Cell growth inhibition %
In short: as §1

[5] = test system: HCC-2998; test: NCI one-dose SRB anti-proliferative screen; assay type: cell-based; conditions: Homo sapiens, read-out: Cell growth inhibition %
In short: as §1

[6] = test system: HOP-62; test: NCI one-dose SRB anti-proliferative screen; assay type: cell-based; conditions: Homo sapiens, read-out: Cell growth inhibition %
In short: as §1

[7] = test system: KM12; test: NCI one-dose SRB anti-proliferative screen; assay type: cell-based; conditions: Homo sapiens, read-out: Cell growth inhibition %
In short: as §1

[8] = test system: MCF7; test: NCI one-dose SRB anti-proliferative screen; assay type: cell-based; conditions: Homo sapiens, read-out: Cell growth inhibition %
In short: as §1

[9] = test system: SK-MEL-5; test: NCI one-dose SRB anti-proliferative screen; assay type: cell-based; conditions: Homo sapiens, read-out: Cell growth inhibition %
In short: as §1

[10] = test system: SK-OV-3; test: NCI one-dose SRB anti-proliferative screen; assay type: cell-based; conditions: Homo sapiens, read-out: Cell growth inhibition %
In short: as §1

[11] = test system: SW-620; test: NCI one-dose SRB anti-proliferative screen; assay type: cell-based; conditions: Homo sapiens, read-out: Cell growth inhibition %
In short: as §1

[12] = test system: UACC-257; test: NCI one-dose SRB anti-proliferative screen; assay type: cell-based; conditions: Homo sapiens, read-out: Cell growth inhibition %
In short: as §1

[13] = MTT cell viability assay in normal cells; assay type: cell-based; conditions: human, MCF-10A normal mammary epithelial cells
Protocol: To check the safety of prepared compounds and evaluate their selectivity towards tumor cells over normal ones, the toxicity of compounds 7a-x were evaluated by 3-(4,5-Dimethylthiazole-2-yl)-2,5-diphenyltetrazol (MTT) assay on the normal human mammary epithelial cell line (MCF-10 A). The human mammary epithelial cell lines were incubated for four days with a concentration of 50 µM of compounds 7a-x.
MTT assay was done to determine the effect of the synthesized compounds on the viability of mammary epithelial cells (MCF-10 A). Compounds 7a-x were incubated with MCF-10 A cells for 4 days at 50 µM concentration, and the viability of cells was determined. See Appendix A.
MTT assay was carried out to study the effect of compounds on mammary epithelial cells (MCF-10A).^7, ^8 The medium in which cells were propagated contained Dulbecco's modified Eagle's medium (DMEM)/ Ham's F-12 medium (1:1) supplemented with epidermal growth factor (20 ng/mL), hydrocortisone (500 ng/mL), insulin (10 μg/mL), 2 mM glutamine and 10% foetal calf serum. After every 2-3 days, the cells were passaged using trypsin ethylenediamine tetra acetic acid (EDTA). The cells were seeded at a density of 10^4 cells mL^-1 in flat-bottomed culture plates containing 96 wells each. After 24 h, medium was removed from the plates and the compounds in (in 0.1% DMSO) were added (in 200 μL medium to yield a final concentration of 0.1% v/v) to the wells of plates. A single compound was designated with four wells followed by incubation of plates for 96h at 37°C. After incubation, medium was removed completely from the plates followed by addition of MTT (0.4 mg/mL in medium) to each well and subsequent incubation of plates for 3h. MTT (along with the medium) was removed and DMSO (150μL) was added to each well of the culture plates, followed by vortexing and subsequent measurement of absorbance (at 540 nm) using microplate reader.

[14] = CCRF-CEM, Leukemia, NCI one dose
[15] = COLO 205, Colon cancer, NCI one dose
[16] = DU-145, Prostate Cancer, NCI one dose
[17] = EKVX, Non-Small Cell Lung Cancer, NCI one dose
[18] = HCC-2998, Colon cancer, NCI one dose
[19] = HOP-62, Non-Small Cell Lung Cancer, NCI one dose
[20] = KM12, Colon cancer, NCI one dose
[21] = MCF7, Breast cancer, NCI one dose
[22] = SK-MEL-5, Melanoma, NCI one dose
[23] = SK-OV-3, Ovarian Cancer, NCI one dose
[24] = SW-620, Colon cancer, NCI one dose
[25] = UACC-257, Melanoma, NCI one dose
[26] = CCRF-CEM (Leukemia), NCI one dose 10 µM
[27] = COLO 205 (Colon Cancer), NCI one dose 10 µM
[28] = DU-145 (Prostate Cancer), NCI one dose 10 µM
[29] = EKVX (Non-Small Cell Lung Cancer), NCI one dose 10 µM
[30] = HCC-2998 (Colon Cancer), NCI one dose 10 µM
[31] = HOP-62 (Non-Small Cell Lung Cancer), NCI one dose 10 µM
[32] = KM12 (Colon Cancer), NCI one dose 10 µM
[33] = MCF7 (Breast Cancer), NCI one dose 10 µM
[34] = SK-MEL-5 (Melanoma), NCI one dose 10 µM
[35] = SK-OV-3 (Ovarian Cancer), NCI one dose 10 µM
[36] = SW-620 (Colon Cancer), NCI one dose 10 µM
[37] = UACC-257 (Melanoma), NCI one dose 10 µM

| Compound | inhibition at 10 µM [1, 14] [%] | inhibition at 10 µM [2, 15] [%] | inhibition at 10 µM [3, 16] [%] | inhibition at 10 µM [4, 17] [%] | inhibition at 10 µM [5, 18] [%] | inhibition at 10 µM [6, 19] [%] | inhibition at 10 µM [7, 20] [%] | inhibition at 10 µM [8, 21] [%] | inhibition at 10 µM [9, 22] [%] | inhibition at 10 µM [10, 23] [%] | inhibition at 10 µM [11, 24] [%] | inhibition at 10 µM [12, 25] [%] | viability at 96 h, 50 µM [13] [%] | melting point [°C] | inhibition at 10 µM [1, 26] [%] | inhibition at 10 µM [2, 27] [%] | inhibition at 10 µM [3, 28] [%] | inhibition at 10 µM [4, 29] [%] | inhibition at 10 µM [5, 30] [%] | inhibition at 10 µM [6, 31] [%] | other results |
| --- | --- | --- | --- | --- | --- | --- | --- | --- | --- | --- | --- | --- | --- | --- | --- | --- | --- | --- | --- | --- | --- |
| COc1ccc(/C=C/C(=O)c2ccc(NC(=O)CSc3nnc(-c4ccc5[nH]c(-c6ccccc6)nc5c4)o3)cc2)cc1 [Compound 7c, 2-{5-[2-Phenyl-1 H-benzo[d]imidazol-5-yl]-1,3,4-oxadiazol-2-ylthio}-N-{4-[(E)-3-(4-methoxyphenyl)acryloyl]phenyl}acetamide] | 34.5 | 0 | 0 | 0 | 0 | 0 | 1.55 | 27.5 | 16.8 | 0 | 0 | 0 | 87 | 175 to 177 | – | – | – | – | – | – | – |
| COc1ccc(/C=C/C(=O)c2ccc(NC(=O)CSc3nnc(-c4ccc5[nH]c(-c6ccc(OC)c(OC)c6)nc5c4)o3)cc2)cc1 [Compound 7r, 2-{5-[2-(3,4-Dimethoxyphenyl)-1 H-benzo[d]imidazol-5-yl]-1,3,4-oxadiazol-2-ylthio}-N-{4-[(E)-3-(4-methoxyphenyl)acryloyl]phenyl}acetamide] | – | – | – | – | – | – | – | – | – | – | – | – | 91 | 170 to 171 | 38.6 | 0 | 0 | 3.51 | 0 | 0 | inhibition at 10 µM [7, 32]: 0%; inhibition at 10 µM [8, 33]: 24.7%; inhibition at 10 µM [9, 34]: 10.8%; inhibition at 10 µM [10, 35]: 0%; inhibition at 10 µM [11, 36]: 0%; inhibition at 10 µM [12, 37]: 0% |
| O=C(CSc1nnc(-c2ccc3[nH]c(-c4ccccc4)nc3c2)o1)Nc1ccc(C(=O)/C=C/c2ccc(Cl)cc2)cc1 [Compound 7b, 2-{5-[2-Phenyl-1 H-benzo[d]imidazol-5-yl]-1,3,4-oxadiazol-2-ylthio}-N-{4-[(E)-3-(4-chlorophenyl)acryloyl]phenyl}acetamide] | 0 | 0 | 0 | 0 | 0 | 0 | 0 | 16.8 | 3.35 | 0 | 0 | 0 | 88 | 263 to 264 | – | – | – | – | – | – | – |
| COc1cc(-c2nc3cc(-c4nnc(SCC(=O)Nc5ccc(C(=O)/C=C/c6ccccc6)cc5)o4)ccc3[nH]2)cc(OC)c1OC [Compound 7u, 2-{5-[2-(3,4,5-Trimethoxyphenyl)-1 H-benzo[d]imidazol-5-yl]-1,3,4-oxadiazol-2-ylthio}-N-{4-[(E)-3-phenylacryloyl]phenyl}acetamide] | – | – | – | – | – | – | – | – | – | – | – | – | 90 | 188 to 190 | 21.9 | 0 | 0 | 0 | 0 | 0 | inhibition at 10 µM [7, 32]: 0.98%; inhibition at 10 µM [8, 33]: 44.7%; inhibition at 10 µM [9, 34]: 5.99%; inhibition at 10 µM [10, 35]: 0%; inhibition at 10 µM [11, 36]: 0%; inhibition at 10 µM [12, 37]: 0% |
| COc1ccc(/C=C/C(=O)c2ccc(NC(=O)CSc3nnc(-c4ccc5[nH]c(-c6ccccc6)nc5c4)o3)cc2)cc1OC [Compound 7d, 2-{5-[2-Phenyl-1 H-benzo[d]imidazol-5-yl]-1,3,4-oxadiazol-2-ylthio}-N-{4-[(E)-3-(3,4-dimethoxyphenyl)acryloyl]phenyl}acetamide] | 9.62 | 0 | 0 | 0 | 0 | 0 | 0 | 27.3 | 0 | 0 | 0 | 0 | 89 | 156 to 158 | – | – | – | – | – | – | – |
| O=C(CSc1nnc(-c2ccc3[nH]c(-c4ccccc4)nc3c2)o1)Nc1ccc(C(=O)/C=C/c2ccccc2)cc1 [Compound 7a, 2-{5-[2-Phenyl-1 H-benzo[d]imidazol-5-yl]-1,3,4-oxadiazol-2-ylthio}-N-{4-[(E)-3-phenylacryloyl]phenyl}acetamide] | 0 | 0 | 0 | 0 | 0 | 0 | 0 | 12.4 | 1.68 | 0 | 0 | 0 | 91 | 273 to 275 | – | – | – | – | – | – | – |
